Here are results for 36 compounds from patent US12011444B2, “N-substituted indole derivatives as PGE2 receptor modulators” (Idorsia Pharmaceuticals Ltd, priority 2015, dated 2024).

The target of one assay is EP4 (Homo sapiens (Human), UniProt P35408). Briefly: hEP4 cAMP assay (BT549 breast cancer cells, HTRF cAMP). The assay is classed as cell-based. The conditions noted are these: antagonistic activity; mean values where measured multiple times. The method, then:
Plate is pre-incubated 45 minutes at room temperature. Subsequently, 2.5 microliters of PGE2 (final conc. 6 nM) are transferred into the assay plate. Plate is incubated 30 minutes at room temperature.

A further assay has as its target EP2 (Homo sapiens (Human), UniProt P43116).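 Also: antagonism of PGE2-stimulated cAMP accumulation in SF295 human glioblastoma cells with endogenous EP2, cAMP read by HTRF, expressed relative to DMSO control.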

Chain of EP4 (P35408 whole entry): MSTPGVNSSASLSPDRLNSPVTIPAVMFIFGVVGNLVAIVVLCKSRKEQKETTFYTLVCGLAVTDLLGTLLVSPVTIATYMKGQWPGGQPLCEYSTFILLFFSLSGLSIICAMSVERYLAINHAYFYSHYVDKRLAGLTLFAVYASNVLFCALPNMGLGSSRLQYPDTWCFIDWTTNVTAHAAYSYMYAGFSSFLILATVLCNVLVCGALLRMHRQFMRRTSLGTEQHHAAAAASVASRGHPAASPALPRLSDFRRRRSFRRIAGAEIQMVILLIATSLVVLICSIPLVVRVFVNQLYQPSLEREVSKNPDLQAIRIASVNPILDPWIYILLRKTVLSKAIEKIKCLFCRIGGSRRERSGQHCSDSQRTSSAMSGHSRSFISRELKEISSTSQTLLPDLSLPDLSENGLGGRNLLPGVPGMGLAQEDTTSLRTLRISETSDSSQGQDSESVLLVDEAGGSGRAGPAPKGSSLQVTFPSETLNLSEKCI
Chain of EP2 (P43116 whole entry): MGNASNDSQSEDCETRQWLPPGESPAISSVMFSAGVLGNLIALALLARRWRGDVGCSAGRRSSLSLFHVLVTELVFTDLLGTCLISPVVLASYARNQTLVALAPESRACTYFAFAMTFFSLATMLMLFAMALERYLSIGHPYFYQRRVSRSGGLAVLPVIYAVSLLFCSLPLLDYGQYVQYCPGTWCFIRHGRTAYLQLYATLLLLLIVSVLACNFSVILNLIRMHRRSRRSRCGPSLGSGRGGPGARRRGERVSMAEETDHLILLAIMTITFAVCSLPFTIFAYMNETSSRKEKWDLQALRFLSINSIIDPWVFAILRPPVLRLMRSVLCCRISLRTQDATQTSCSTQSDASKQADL

For orientation: IC50 means the midpoint of a concentration-inhibition curve. The low end stands for inhibition by little substance, the high end for a need for much substance. Turning to `COc1cc(Cl)cc2c1cc(C)n2CCNc1cc(-c2ccc(-c3noc(=O)[nH]3)cc2)ncn1` [compound 679, 3-(4-{6-[2-(6-Chloro-4-methoxy-2-methyl-indol-1-yl)-ethylamino]-pyrimidin-4-yl}-phenyl)-4H-[1,2,4]oxadiazol-5-one], the values for the IC50 on EP4 and against EP2 were 95 nM and 20 nM, respectively.
On the same counts, the results for `Cc1cc(F)c(F)c2c1cc(C)n2CCNc1cc(-c2ccc(-c3noc(=O)[nH]3)cc2)ncn1` [compound 680] are 113 nM and 56 nM.
Consider `Cc1cc2c(Cl)cc(Cl)cc2n1CCNc1cc(-c2ccc(-c3noc(=O)[nH]3)cc2)ncn1` [compound 681, 3-(4-{6-[2-(4,6-Dichloro-2-methyl-indol-1-yl)-ethylamino]-pyrimidin-4-yl}-phenyl)-4H-[1,2,4]oxadiazol-5-one], for which the values for the half-maximal inhibitory concentration (IC50) on EP4 and at EP2 were 247 nM and 14 nM, respectively.
In the case of `Cc1cc2c(F)c(F)cc(F)c2n1CCNc1cc(-c2ccc(-c3noc(=O)[nH]3)cc2)ncn1` [compound 682, 3-(4-{6-[2-(4,5,7-Trifluoro-2-methyl-indol-1-yl)-ethylamino]-pyrimidin-4-yl}-phenyl)-4H-[1,2,4]oxadiazol-5-one], the IC50 against EP4 is 251 nM; against EP2, 12 nM.
For `COc1cc(-c2cc(NCCn3c(C)cc4c(OC)ccc(F)c43)ncn2)ccc1-c1nnn[nH]1` [compound 683, [2-(7-Fluoro-4-methoxy-2-methyl-indol-1-yl)-ethyl]-{6-[3-methoxy-4-(1H-tetrazol-5-yl)-phenyl]-pyrimidin-4-yl}-amine] the same measures were 162 nM and 6 nM.
As to `COc1cc(-c2cc(NCCn3c(C)cc4c(OC)ccc(Cl)c43)ncn2)ccc1-c1nnn[nH]1` [compound 684, [2-(7-Chloro-4-methoxy-2-methyl-indol-1-yl)-ethyl]-{6-[3-methoxy-4-(1H-tetrazol-5-yl)-phenyl]-pyrimidin-4-yl}-amine], the 50% inhibitory concentration (IC50) at EP4 was determined as 471 nM; on EP2, 36 nM.
For `Cc1cc(F)cc2c1cc(C)n2CCNc1cc(-c2ccc(-c3ncno3)cc2)ncn1` [compound 685, [2-(6-Fluoro-2,4-dimethyl-indol-1-yl)-ethyl]-[6-(4-[1,2,4]oxadiazol-5-yl-phenyl)-pyrimidin-4-yl]-amine] the same measures were 109 nM and 6 nM.
For `Cc1nc2cc(-c3cc(NCCn4c(C)cc5c(C)ccc(F)c54)ncn3)ccc2o1` [compound 686] the same measures were 842 nM and 239 nM.
Take `COc1cc(F)cc2c1cc(C)n2CCNc1cc(-c2ccc3oc(C)nc3c2)ncn1` [compound 687]: the IC50 against EP4 was 778 nM; on EP2, 91 nM.
On the same counts, the results for `COc1ccc(F)c2c1cc(C)n2CCNc1cc(-c2ccc3oc(C)nc3c2)ncn1` [compound 688] are 680 nM and 80 nM.
On the same counts, the results for `COc1ccc(F)c2c1cc(C)n2CCNc1cc(-c2cc(Cl)c(C(=O)O)c(OCC(C)C)c2)ncn1` [compound 690] are 35 nM and 5 nM.
For the compound `COc1cccc2c1cc(C)n2CCNc1cc(-c2cc(Cl)c(C(=O)O)c(OCC(C)C)c2)ncn1` [compound 691], the 50% inhibitory concentration (IC50) against EP4 amounted to 177 nM; against EP2 it was 4 nM.
On the same counts, the results for `COc1cc(F)cc2c1cc(C)n2CCNc1cc(-c2cc(Cl)c(C(=O)O)c(OCC(C)C)c2)ncn1` [compound 692] are 64 nM and 7 nM.
For `Cc1cc(F)cc2c1cc(C)n2CCNc1cc(-c2cc(Cl)c(C(=O)O)c(OCC(C)C)c2)ncn1` [compound 693] the same measures were 234 nM and 20 nM.
On the same counts, the results for `Cc1cc(F)c(F)c2c1cc(C)n2CCNc1cc(-c2cc(Cl)c(C(=O)O)c(OCC(C)C)c2)ncn1` [compound 694] are 120 nM and 49 nM.
Consider `Cc1cc2ccccc2n1CCNc1cc(-c2ccc3[nH]ccc3c2)ncn1` [compound 695, [6-(1H-Indol-5-yl)-pyrimidin-4-yl]-[2-(2-methyl-indol-1-yl)-ethyl]-amine], for which the half-maximal inhibitory concentration (IC50) against EP4 came out at 999 nM; at EP2 it was 4 nM.
On the same counts, the results for `Cc1cc(F)c(F)c2c1cc(C)n2CCNc1cc(-c2ccc3[nH]ccc3c2)ncn1` [compound 696, [2-(6,7-Difluoro-2,4-dimethyl-indol-1-yl)-ethyl]-[6-(1H-indol-5-yl)-pyrimidin-4-yl]-amine] are 131 nM and 42 nM.
As to `Cc1cc(F)cc2c1cc(C)n2CCNc1cc(-c2ccc3[nH]ccc3c2)ncn1` [compound 697, [2-(6-Fluoro-2,4-dimethyl-indol-1-yl)-ethyl]-[6-(1H-indol-5-yl)-pyrimidin-4-yl]-amine], the IC50 against EP4 was 77 nM; on EP2, 15 nM.
For `Cc1ccc(F)c2c1cc(C)n2CCNc1cc(-c2ccc3[nH]ccc3c2)ncn1` [compound 698, [2-(7-Fluoro-2,4-dimethyl-indol-1-yl)-ethyl]-[6-(1H-indol-5-yl)-pyrimidin-4-yl]-amine] the same measures were 79 nM and 21 nM.
On the same counts, the results for `COc1cc(F)cc2c1cc(C)n2CCNc1cc(-c2ccc3[nH]ccc3c2)ncn1` [compound 699, [2-(6-Fluoro-4-methoxy-2-methyl-indol-1-yl)-ethyl]-[6-(1H-indol-5-yl)-pyrimidin-4-yl]-amine] are 63 nM and 9 nM.
On the same counts, the results for `COc1ccc(F)c2c1cc(C)n2CCNc1cc(-c2ccc3[nH]ccc3c2)ncn1` [compound 700, [2-(7-Fluoro-4-methoxy-2-methyl-indol-1-yl)-ethyl]-[6-(1H-indol-5-yl)-pyrimidin-4-yl]-amine] are 44 nM and 7 nM.
On to `COc1cc(F)c(F)c2c1cc(C)n2CCNc1cc(-c2ccc3[nH]ccc3c2)ncn1` [compound 701, [2-(6,7-Difluoro-4-methoxy-2-methyl-indol-1-yl)-ethyl]-[6-(1H-indol-5-yl)-pyrimidin-4-yl]-amine], for which the IC50 on EP4 is 24 nM; against EP2 it was 15 nM.
On the same counts, the results for `Cc1cc(F)c(F)c2c1cc(C)n2CCNc1cc(-c2ccc3c(ccn3C)c2)ncn1` [compound 702] are 225 nM and 165 nM.
On the same counts, the results for `Cc1ccc(F)c2c1cc(C)n2CCNc1cc(-c2ccc3c(ccn3C)c2)ncn1` [compound 704, [2-(7-Fluoro-2,4-dimethyl-indol-1-yl)-ethyl]-[6-(1-methyl-1H-indol-5-yl)-pyrimidin-4-yl]-amine] are 177 nM and 47 nM.
On the same counts, the results for `COc1cc(F)cc2c1cc(C)n2CCNc1cc(-c2ccc3c(ccn3C)c2)ncn1` [compound 705, [2-(6-Fluoro-4-methoxy-2-methyl-indol-1-yl)-ethyl]-[6-(1-methyl-1H-indol-5-yl)-pyrimidin-4-yl]-amine] are 80 nM and 21 nM.
In the case of `COc1ccc(F)c2c1cc(C)n2CCNc1cc(-c2ccc3c(ccn3C)c2)ncn1` [compound 706, [2-(7-Fluoro-4-methoxy-2-methyl-indol-1-yl)-ethyl]-[6-(1-methyl-1H-indol-5-yl)-pyrimidin-4-yl]-amine], the half-inhibitory concentration (IC50) was 55 nM at EP4 and 10 nM against EP2.
On the same counts, the results for `COc1cc(F)c(F)c2c1cc(C)n2CCNc1cc(-c2ccc3c(ccn3C)c2)ncn1` [compound 707, [2-(6,7-Difluoro-4-methoxy-2-methyl-indol-1-yl)-ethyl]-[6-(1-methyl-1H-indol-5-yl)-pyrimidin-4-yl]-amine] are 57 nM and 38 nM.
On the same counts, the results for `COc1cc(F)cc2c1cc(C)n2CCNc1cc(-c2ccc(C(=O)CC#N)cc2)ncn1` [compound 709, 3-(4-{6-[2-(6-Fluoro-4-methoxy-2-methyl-indol-1-yl)-ethylamino]-pyrimidin-4-yl}-phenyl)-3-oxo-propionitrile] are 535 nM and 14 nM.
On the same counts, the results for `COc1ccc(F)c2c1cc(C)n2CCNc1cc(-c2ccc(C(=O)CC#N)cc2)ncn1` [compound 710, 3-(4-{6-[2-(7-Fluoro-4-methoxy-2-methyl-indol-1-yl)-ethylamino]-pyrimidin-4-yl}-phenyl)-3-oxo-propionitrile] are 373 nM and 15 nM.
On to `COc1cc(F)c(F)c2c1cc(C)n2CCNc1cc(-c2ccc(C(=O)CC#N)cc2)ncn1` [compound 711, 3-(4-{6-[2-(6,7-Difluoro-4-methoxy-2-methyl-indol-1-yl)-ethylamino]-pyrimidin-4-yl}-phenyl)-3-oxo-propionitrile], for which the IC50 against EP4 is 429 nM; at EP2 it was 16 nM.
For `Cc1cc(-c2ccc(-c3cc(NCCn4c(C)cc5c(C)cc(F)cc54)ncn3)cc2)on1` [compound 713] the same measures were 267 nM and 73 nM.
For `Cc1cc(-c2ccc(-c3cc(NCCn4c(C)cc5c(C)ccc(F)c54)ncn3)cc2)on1` [compound 714] the same measures were 958 nM and 72 nM.
With `COc1cc(F)cc2c1cc(C)n2CCNc1cc(-c2ccc(-c3cc(C)no3)cc2)ncn1` [compound 715, [2-(6-Fluoro-4-methoxy-2-methyl-indol-1-yl)-ethyl]-{6-[4-(3-methyl-isoxazol-5-yl)-phenyl]-pyrimidin-4-yl}-amine], the IC50 came out at 240 nM against EP4 and 16 nM against EP2.
Take `COc1ccc(F)c2c1cc(C)n2CCNc1cc(-c2ccc(-c3cc(C)no3)cc2)ncn1` [compound 716, [2-(7-Fluoro-4-methoxy-2-methyl-indol-1-yl)-ethyl]-{6-[4-(3-methyl-isoxazol-5-yl)-phenyl]-pyrimidin-4-yl}-amine]: the IC50 against EP4 came out at 510 nM; at EP2, 12 nM.
With `COc1cc(F)c(F)c2c1cc(C)n2CCNc1cc(-c2ccc(-c3cc(C)no3)cc2)ncn1` [compound 717], the values for the half-maximal inhibitory concentration (IC50) against EP4 and on EP2 were 527 nM and 242 nM, respectively.
For `Cc1cnoc1-c1ccc(-c2cc(NCCn3c(C)cc4c(C)cc(F)c(F)c43)ncn2)cc1` [compound 719] the same measures were 389 nM and 223 nM.
